We go through 22 compounds from US12264134B2 (Merck Sharp & Dohme LLC, priority 2018, dated 2025).

Where a name gives a salt, the structure may show the parent alone.

Assay [1] has as its target T1, IDO1 (Homo sapiens, UniProt P14902). In words: IDO1 Human Whole blood Assay. The assay is classed as cell-based. Also on record: Human whole blood was drawn in sodium heparin coated tubes from healthy internal donors; from tissue; host or cells: human whole blood from healthy donors, stimulated with LPS and IFNγ. The following applies: LPS and IFNγ stimulated, 18 h, read-out: Human Whole Blood Potency, IC50. The essentials:
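LC/MS/MS of kynurenine, normalized to spiked isotope-labeled standard (3 μM final), served as the readout. Beforehand, fresh human blood with compound (15 min preincubation) was stimulated overnight (18 h, 37 °C) with 100 ng/mL LPS/IFNγ. IC50 was obtained by four-parameter curve fitting.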

Assay [2] deals with T1, IDO1. In words: IDO1 Cellular Assay in HeLa Cells Stimulated with IFNγ. It counts as cell-based. The following applies: read-out: HeLa Cell Potency, IC50.

T1 sequence (P14902 whole entry): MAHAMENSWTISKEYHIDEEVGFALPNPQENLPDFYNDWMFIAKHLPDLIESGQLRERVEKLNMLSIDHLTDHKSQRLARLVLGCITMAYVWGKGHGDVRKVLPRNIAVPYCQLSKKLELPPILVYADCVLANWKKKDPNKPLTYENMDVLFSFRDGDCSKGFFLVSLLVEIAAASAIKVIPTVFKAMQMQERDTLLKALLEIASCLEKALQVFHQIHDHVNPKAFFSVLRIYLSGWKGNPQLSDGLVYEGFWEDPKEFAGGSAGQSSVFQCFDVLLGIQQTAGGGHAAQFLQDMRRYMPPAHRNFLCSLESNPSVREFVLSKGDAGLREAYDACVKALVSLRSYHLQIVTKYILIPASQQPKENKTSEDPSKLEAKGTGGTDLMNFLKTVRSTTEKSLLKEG

As a reminder, the IC50 is the point on the concentration scale where inhibition reaches its midpoint. Regarding `Cc1cccc(N2CCN(C(=O)Cn3nc(C(=O)N4CCC(c5cn[nH]c5)CC4)c4c3CCC4)CC2)c1C` [Example 142, 1-[4-(2,3-dimethylphenyl)piperazin-1-yl]-2-{3-[4-(1H-pyrazol-4-yl)piperidine-1-carbonyl]-5,6-dihydrocyclopenta[c]pyrazol-1(4H)-yl}ethan-1-one], the IC50 at IDO1 [1] came to 48 nM; on IDO1 [2], 1.29 nM.
For `Cc1cccc(N2CCN(C(=O)Cn3nc(C(=O)N4CCC5(CCOC5=O)CC4)c4c3CCC4)CC2)c1C` [Example 146, 8-(1-{2-[4-(2,3-dimethylphenyl)piperazin-1-yl]-2-oxoethyl}-1,4,5,6-tetrahydrocyclopenta[c]pyrazole-3-carbonyl)-2-oxa-8-azaspiro[4.5]decan-1-one], the half-inhibitory concentration (IC50) at IDO1 [1] stood at 150 nM; at IDO1 [2], 2.39 nM.
`Cc1cccc(N2CCN(C(=O)Cn3nc(C(=O)N4CCCC(CO)C4)c4c3CCC4)CC2)c1C` (centres unmarked) [Example 147, 1-[4-(2,3-dimethylphenyl)piperazin-1-yl]-2-{3-[3-(hydroxymethyl)piperidine-1-carbonyl]-5,6-dihydrocyclopenta[c]pyrazol-1(4H)-yl}ethan-1-one]: the IC50 on IDO1 [1] was 607 nM; on IDO1 [2], 2.84 nM.
Turning to `Cc1cccc(N2CCN(C(=O)Cn3nc(C(=O)N4CCN(CC(F)F)CC4)c4c3CCC4)CC2)c1C` [Example 157, 2-{3-[4-(2,2-difluoroethyl)piperazine-1-carbonyl]-5,6-dihydrocyclopenta[c]pyrazol-1(4H)-yl}-1-[4-(2,3-dimethylphenyl)piperazin-1-yl]ethan-1-one], the IC50 on IDO1 [1] came out at 196 nM; at IDO1 [2], 3.34 nM.
The like results for `Cc1cccc(N2CCN(C(=O)Cn3nc(C(=O)N4CCN(CC(F)(F)F)CC4)c4c3CCC4)CC2)c1C` [Example 158, 1-[4-(2,3-dimethylphenyl)piperazin-1-yl]-2-{3-[4-(2,2,2-trifluoroethyl)piperazine-1-carbonyl]-5,6-dihydrocyclopenta[c]pyrazol-1(4H)-yl}ethan-1-one] were, in that order, 375 nM and 3.06 nM.
The like results for `Cc1cccc(N2CCN(C(=O)Cn3nc(C(=O)N4CCC(CCO)CC4)c4c3CCC4)CC2)c1C` [Example 160, 1-[4-(2,3-dimethylphenyl)piperazin-1-yl]-2-{3-[4-(2-hydroxyethyl)piperidine-1-carbonyl]-5,6-dihydrocyclopenta[c]pyrazol-1(4H)-yl}ethan-1-one] were, in that order, 209 nM and 1.65 nM.
On to `Cc1cccc(N2CCN(C(=O)Cn3nc(C(=O)N4CCC(C)(CO)CC4)c4c3CCC4)CC2)c1C` [Example 161, 1-[4-(2,3-dimethylphenyl)piperazin-1-yl]-2-{3-[4-(hydroxymethyl)-4-methylpiperidine-1-carbonyl]-5,6-dihydrocyclopenta[c]pyrazol-1(4H)-yl}ethan-1-one], for which the half-inhibitory concentration (IC50) on IDO1 [1] worked out at 113 nM; on IDO1 [2] it was 2.42 nM.
Turning to `Cc1cccc(N2CCN(C(=O)Cn3nc(C(=O)N4CCN(CC(N)=O)CC4)c4c3CCC4)CC2)c1C` [Example 165, 2-[4-(1-{2-[4-(2,3-dimethylphenyl)piperazin-1-yl]-2-oxoethyl}-1,4,5,6-tetrahydrocyclopenta[c]pyrazole-3-carbonyl)piperazin-1-yl]acetamide], the IC50 was 79 nM at IDO1 [1] and 8.85 nM on IDO1 [2].
In the same order, the values of `Cc1cccc(N2CCN(C(=O)Cn3nc(C(=O)N4CCN(C)[C@H](C)C4)c4c3CCC4)CC2)c1C` [Example 167, 1-[4-(2,3-dimethylphenyl)piperazin-1-yl]-2-{3-[(3R)-3,4-dimethylpiperazine-1-carbonyl]-5,6-dihydrocyclopenta[c]pyrazol-1(4H)-yl}ethan-1-one] are 189 nM and 7.88 nM.
For the compound `Cc1cccc(N2CCN(C(=O)Cn3nc(C(=O)N4CCN(C5COC5)CC4)c4c3CCC4)CC2)c1C` [Example 168, 1-[4-(2,3-dimethylphenyl)piperazin-1-yl]-2-{3-[4-(oxetan-3-yl)piperazine-1-carbonyl]-5,6-dihydrocyclopenta[c]pyrazol-1(4H)-yl}ethan-1-one], the IC50 amounted to 441 nM at IDO1 [1] and 5.88 nM at IDO1 [2].
In the same order, the values of `COCCN1[C@H](C)CN(C(=O)c2nn(CC(=O)N3CCN(c4cccc(C)c4C)CC3)c3c2CCC3)C[C@@H]1C` [Example 172, 1-[4-(2,3-dimethylphenyl)piperazin-1-yl]-2-{3-[(3R,5S)-4-(2-methoxyethyl)-3,5-dimethylpiperazine-1-carbonyl]-5,6-dihydrocyclopenta[c]pyrazol-1(4H)-yl}ethan-1-one] are 1240 nM and 6.12 nM.
Turning to `Cc1cccc(N2CCN(C(=O)Cn3nc(C(=O)N4CCN5CCOC[C@H]5C4)c4c3CCC4)CC2)c1C` [Example 173, 1-[4-(2,3-dimethylphenyl)piperazin-1-yl]-2-{3-[(9aR)-hexahydropyrazino[2,1-c][1,4]oxazine-8(1H)-carbonyl]-5,6-dihydrocyclopenta[c]pyrazol-1(4H)-yl}ethan-1-one], the values for the IC50 at IDO1 [1] and at IDO1 [2] were 1670 nM and 7.66 nM, respectively.
In the same order, the values of `Cc1cccc(N2CCN(C(=O)Cn3nc(C(=O)N4CCN5CCOC[C@@H]5C4)c4c3CCC4)CC2)c1C` [Example 174, 1-[4-(2,3-dimethylphenyl)piperazin-1-yl]-2-{3-[(9aS)-hexahydropyrazino[2,1-c][1,4]oxazine-8(1H)-carbonyl]-5,6-dihydrocyclopenta[c]pyrazol-1(4H)-yl}ethan-1-one] are 480 nM and 3.75 nM.
In the same order, the values of `Cc1cccc(N2CCN(C(=O)Cn3nc(C(=O)N4CCC5(CC4)COCC5O)c4c3CCC4)CC2)c1C` (centres unmarked) [Example 181, 1-[4-(2,3-dimethylphenyl)piperazin-1-yl]-2-[3-(4-hydroxy-2-oxo-8-azaspiro[4.5]decane-8-carbonyl)-5,6-dihydrocyclopenta[c]pyrazol-1(4H)-yl]ethan-1-one] are 125 nM and 3.3 nM.
With `Cc1cccc(N2CCN(C(=O)Cn3nc(C(=O)N4CCC(O)(C(F)F)CC4)c4c3CCC4)CC2)c1C` [Example 192, 2-{3-[4-(difluoromethyl)-4-hydroxypiperidine-1-carbonyl]-5,6-dihydrocyclopenta[c]pyrazol-1(4H)-yl}-1-[4-(2,3-dimethylphenyl)piperazin-1-yl]ethan-1-one], the IC50 at IDO1 [1] turned out to be 196 nM; at IDO1 [2], 1.64 nM.
With `Cc1cccc(N2CCN(C(=O)Cn3nc(C(=O)N4CC[C@H](N)[C@@H](F)C4)c4c3CCC4)CC2)c1C` [Example 203, [(3S,4S)-1-[1-[2-[4-(2,3-dimethylphenyl)piperazin-1-yl]-2-oxo-ethyl]-5,6-dihydro-4H-cyclopenta[c]pyrazole-3-carbonyl]-3-fluoro-4-piperidyl]ammonium; formate], the IC50 at IDO1 [1] amounted to 278 nM; at IDO1 [2], 13 nM.
With `CC(=O)NC1CCN(C(=O)c2nn(CC(=O)N3CCN(c4cccc(C)c4C)CC3)c3c2[C@@H]2C[C@@H]2C3)CC1` [Example 229, N-{1-[(3bR,4aR)-1-{2-[4-(2,3-dimethylphenyl)piperazin-1-yl]-2-oxoethyl}-3b,4,4a,5-tetrahydro-1H-cyclopropa[3,4]cyclopenta[1,2-c]pyrazole-3-carbonyl]piperidin-4-yl}acetamide], the IC50 at IDO1 [1] was determined as 224 nM; at IDO1 [2] it was 1.06 nM.
Take `Cc1cccc(N2CCN(C(=O)Cn3nc(C(=O)N4CC[C@@H](C(C)(C)O)C4)c4c3C[C@H]3C[C@@H]43)CC2)c1C` [Example 230, 1-[4-(2,3-dimethylphenyl)piperazin-1-yl]-2-{(3bR,4aR)-3-[(3R)-3-(2-hydroxypropan-2-yl)pyrrolidine-1-carbonyl]-3b,4,4a,5-tetrahydro-1H-cyclopropa[3,4]cyclopenta[1,2-c]pyrazol-1-yl}ethan-1-one]: the IC50 came to 801 nM on IDO1 [1] and 1.13 nM at IDO1 [2].
As to `Cc1cccc(N2CCN(C(=O)Cn3nc(C(=O)N4C[C@@H](C)N[C@@H](C)C4)c4c3C[C@H]3C[C@@H]43)CC2)c1C` [Example 234, 1-[4-(2,3-dimethylphenyl)piperazin-1-yl]-2-{(3bR,4aR)-3-[(3R,5S)-3,5-dimethylpiperazine-1-carbonyl]-3b,4,4a,5-tetrahydro-1H-cyclopropa[3,4]cyclopenta[1,2-c]pyrazol-1-yl}ethan-1-one], the IC50 came to 273 nM on IDO1 [1] and 3.61 nM at IDO1 [2].
The like results for `Cc1cccc(N2CCN(C(=O)Cn3nc(C(=O)N4C[C@@H](C)N(C)[C@@H](C)C4)c4c3C[C@H]3C[C@@H]43)CC2)c1C` [Example 235, 1-[4-(2,3-dimethylphenyl)piperazin-1-yl]-2-{(3bR,4aR)-3-[(3R,5S)-3,4,5-trimethylpiperazine-1-carbonyl]-3b,4,4a,5-tetrahydro-1H-cyclopropa[3,4]cyclopenta[1,2-c]pyrazol-1-yl}ethan-1-one] were, in that order, 339 nM and 3.1 nM.
With `Cc1cccc(N2CCN(C(=O)Cn3nc(C(=O)N4CCC(O)(CN)CC4)c4c3C[C@H]3C[C@@H]43)CC2)c1C` [Example 238, 2-{(3bR,4aR)-3-[4-(aminomethyl)-4-hydroxypiperidine-1-carbonyl]-3b,4,4a,5-tetrahydro-1H-cyclopropa[3,4]cyclopenta[1,2-c]pyrazol-1-yl}-1-[4-(2,3-dimethylphenyl)piperazin-1-yl]ethan-1-one], the values for the IC50 at IDO1 [1] and at IDO1 [2] were 5050 nM and 8.43 nM, respectively.
Take `Cc1cccc(N2CCN(C(=O)Cn3nc(C(=O)N4CCN(CCO)CC4)c4c3C[C@H]3C[C@@H]43)CC2)c1C` [Example 247]: the IC50 came to 91 nM on IDO1 [1] and 0.91 nM on IDO1 [2].
